Laboratory results from ChEMBL document CHEMBL1629667, “Activities of dalbavancin against a worldwide collection of 81,673 gram-positive bacterial isolates” (2009).
≈ marks a conversion by molar mass, not a printed value.

Experiments:
[1] = tested on: Staphylococcus aureus; assay: Antimicrobial activity against Oxacillin-susceptible Staphylococcus aureus assessed as percent resistant isolates by broth microdilution method; format: functional
[2] = tested on: Enterococcus faecalis; assay: Antimicrobial activity against Enterococcus faecalis VanA assessed as growth inhibition at =<[…] ug/ml by broth microdilution method; format: functional
[3] = Antimicrobial activity against Beta-hemolytic Streptococcus sp. 'group G' assessed as growth inhibition at =<[…] ug/ml by broth microdilution method; format: functional
[4] = Antimicrobial activity against Beta-hemolytic Streptococcus sp. 'group C' assessed as growth inhibition at 0.06 ug/ml by broth microdilution method; format: functional
[5] = Antimicrobial activity against Beta-hemolytic Streptococcus sp. 'group G' assessed as growth inhibition at 0.06 ug/ml by broth microdilution method; format: functional
[6] = tested on: Streptococcus sp. 'group A'; assay: Antimicrobial activity against Beta-hemolytic Streptococcus sp. 'group A' assessed as growth inhibition at 0.25 ug/ml by broth microdilution method; format: functional
[7] = tested on: Streptococcus sp. 'group B'; assay: Antimicrobial activity against Beta-hemolytic Streptococcus sp. 'group B' assessed as growth inhibition at 0.12 ug/ml by broth microdilution method; format: functional
[8] = tested on: Streptococcus sp.; assay: Antimicrobial activity against Beta-hemolytic Streptococcus sp. Group F assessed as growth inhibition at 0.12 ug/ml by broth microdilution method; format: functional
[9] = tested on: Streptococcus; assay: Antimicrobial activity against viridans group Streptococcus assessed as percent susceptible isolate by broth microdilution method; format: functional
[10] = tested on: Enterococcus faecalis; assay: Antimicrobial activity against Enterococcus faecalis VanB assessed as growth inhibition at 0.5 ug/ml by broth microdilution method; format: functional
[11] = tested on: Enterococcus faecalis; assay: Antimicrobial activity against Enterococcus faecalis VanB assessed as growth inhibition at 1 ug/ml by broth microdilution method; format: functional
[12] = tested on: Enterococcus faecium; assay: Antimicrobial activity against Enterococcus faecium VanB assessed as growth inhibition at 2 ug/ml by broth microdilution method; format: functional
[13] = tested on: Enterococcus faecium; assay: Antimicrobial activity against Enterococcus faecium VanA assessed as growth inhibition at 0.25 ug/ml by broth microdilution method; format: functional
[14] = tested on: Enterococcus faecalis; assay: Antimicrobial activity against Enterococcus faecalis VanA assessed as growth inhibition at 0.12 ug/ml by broth microdilution method; format: functional
[15] = tested on: Enterococcus faecalis; assay: Antimicrobial activity against Enterococcus faecalis VanA assessed as growth inhibition at 1 ug/ml by broth microdilution method; format: functional
[16] = tested on: Enterococcus faecium; assay: Antimicrobial activity against Enterococcus faecium VanA assessed as growth inhibition at 0.06 ug/ml by broth microdilution method; format: functional
[17] = tested on: Enterococcus faecium; assay: Antimicrobial activity against Enterococcus faecium VanA assessed as growth inhibition at 4 ug/ml by broth microdilution method; format: functional
[18] = tested on: Streptococcus sp.; assay: Antimicrobial activity against Beta-hemolytic Streptococcus sp. […]; format: functional, Group F
[19] = tested on: Streptococcus sp. 'group B'; assay: Antimicrobial activity against Beta-hemolytic Streptococcus sp. 'group B' assessed as growth inhibition at 0.06 ug/ml by broth microdilution method; format: functional
[20] = tested on: Staphylococcus; assay: Antimicrobial activity against Oxacillin-susceptible coagulase-negative Staphylococcus assessed as percent resistant isolate by broth microdilution method; format: functional
[21] = tested on: Enterococcus faecium; assay: Antimicrobial activity against Enterococcus faecium VanB assessed as growth inhibition at =<[…] ug/ml by broth microdilution method; format: functional
[22] = tested on: Enterococcus faecium; assay: Antimicrobial activity against Enterococcus faecium VanB assessed as growth inhibition at 4 ug/ml by broth microdilution method; format: functional
[23] = tested on: Staphylococcus aureus; assay: Antimicrobial activity against Oxacillin-susceptible Staphylococcus aureus by broth microdilution method; format: functional
[24] = tested on: Staphylococcus aureus; assay: Antimicrobial activity against Oxacillin-resistant Staphylococcus aureus assessed as percent susceptible isolate by broth microdilution method; format: functional
[25] = tested on: Enterococcus faecium; assay: Antimicrobial activity against Enterococcus faecium VanA assessed as growth inhibition at =<[…] ug/ml by broth microdilution method; format: functional
[26] = tested on: Streptococcus; assay: Antimicrobial activity against Beta-hemolytic Streptococcus by broth microdilution method; format: functional
[27] = tested on: Enterococcus faecium; assay: Antimicrobial activity against Enterococcus faecium VanB assessed as growth inhibition at 0.25 ug/ml by broth microdilution method; format: functional
[28] = tested on: Enterococcus faecalis; assay: Antimicrobial activity against Enterococcus faecalis VanA assessed as growth inhibition at 0.5 ug/ml by broth microdilution method; format: functional
[29] = tested on: Streptococcus sp. 'group A'; assay: Antimicrobial activity against Beta-hemolytic Streptococcus sp. 'group A' assessed as growth inhibition at 0.06 ug/ml by broth microdilution method; format: functional
[30] = tested on: Enterococcus faecium; assay: Antimicrobial activity against Enterococcus faecium VanB assessed as growth inhibition at 0.06 ug/ml by broth microdilution method; format: functional
[31] = tested on: Enterococcus faecalis; assay: Antimicrobial activity against Enterococcus faecalis VanA assessed as growth inhibition at 4 ug/ml by broth microdilution method; format: functional
[32] = tested on: Enterococcus faecium; assay: Antimicrobial activity against Enterococcus faecium VanB assessed as growth inhibition at 0.12 ug/ml by broth microdilution method; format: functional
[33] = tested on: Enterococcus faecalis; assay: Antimicrobial activity against Enterococcus faecalis VanB assessed as growth inhibition at 0.12 ug/ml by broth microdilution method; format: functional
[34] = tested on: Enterococcus faecium; assay: Antimicrobial activity against Enterococcus faecium VanA assessed as growth inhibition at 0.12 ug/ml by broth microdilution method; format: functional
[35] = tested on: Streptococcus sp. 'group A'; assay: Antimicrobial activity against Beta-hemolytic Streptococcus sp. 'group A' assessed as growth inhibition at 0.12 ug/ml by broth microdilution method; format: functional
[36] = tested on: Enterococcus faecalis; assay: Antimicrobial activity against Enterococcus faecalis VanA assessed as growth inhibition at 0.06 ug/ml by broth microdilution method; format: functional
[37] = tested on: Staphylococcus; assay: Antimicrobial activity against Oxacillin-resistant coagulase-negative Staphylococcus assessed as percent susceptible isolate by broth microdilution method; format: functional
[38] = tested on: Staphylococcus; assay: Antimicrobial activity against Oxacillin-susceptible coagulase-negative Staphylococcus assessed as percent susceptible isolate by broth microdilution method; format: functional
[39] = tested on: Enterococcus faecium; assay: Antimicrobial activity against Enterococcus faecium VanA assessed as growth inhibition at 0.5 ug/ml by broth microdilution method; format: functional
[40] = tested on: Staphylococcus; assay: Antimicrobial activity against Oxacillin-resistant coagulase-negative Staphylococcus assessed as percent resistant isolate by broth microdilution method; format: functional
[41] = tested on: Staphylococcus aureus; assay: Antimicrobial activity against Oxacillin-resistant Staphylococcus aureus assessed as percent resistant isolate by broth microdilution method; format: functional
[42] = tested on: Staphylococcus; assay: Antimicrobial activity against Oxacillin-resistant coagulase-negative Staphylococcus by broth microdilution method; format: functional
[43] = tested on: Staphylococcus aureus; assay: Antimicrobial activity against Oxacillin-resistant Staphylococcus aureus by broth microdilution method; format: functional
[44] = Antimicrobial activity against Beta-hemolytic Streptococcus sp. 'group C' assessed as growth inhibition at =<[…] ug/ml by broth microdilution method; format: functional
[45] = tested on: Enterococcus faecalis; assay: Antimicrobial activity against Enterococcus faecalis VanB assessed as growth inhibition at 0.25 ug/ml by broth microdilution method; format: functional
[46] = tested on: Enterococcus faecalis; assay: Antimicrobial activity against Enterococcus faecalis VanB assessed as growth inhibition at =<[…] ug/ml by broth microdilution method; format: functional
[47] = tested on: Staphylococcus aureus; assay: Antimicrobial activity against Oxacillin-susceptible Staphylococcus aureus assessed as percent susceptible isolate by broth microdilution method; format: functional
[48] = tested on: Enterococcus faecium; assay: Antimicrobial activity against Enterococcus faecium VanB assessed as growth inhibition at 0.5 ug/ml by broth microdilution method; format: functional

Question: Which results are given for `CN[C@H](CC(C)C)C(=O)N[C@H]1C(=O)N[C@@H](CC(N)=O)C(=O)N[C@H]2C(=O)N[C@H]3C(=O)N[C@H](C(=O)N[C@H](C(=O)O)c4cc(O)cc(O)c4-c4cc3ccc4O)[C@H](O)c3ccc(c(Cl)c3)Oc3cc2cc(c3O[C@@H]2O[C@H](CO)[C@@H](O)[C@H](O)[C@H]2O[C@H]2C[C@](C)(N)[C@H](O)[C@H](C)O2)Oc2ccc(cc2Cl)[C@H]1O` [VANCOMYCIN]?
Answer: Activity [1]: 0%; inhibition (INH) [2]: 0.4%; inhibition (INH) [3]: 95.6%; inhibition at 0.06 µg/mL [4]: 100%; inhibition at 0.06 µg/mL [5]: 99.6%; inhibition at 0.25 µg/mL [6]: 100%; inhibition at 0.12 µg/mL [7]: 99.6%; inhibition at 0.12 µg/mL [8]: 100%; Activity [9]: 99.9%; inhibition at 0.5 µg/mL [10]: 75%; inhibition at 1 µg/mL [11]: 78.6%; inhibition at 2 µg/mL [12]: 94%; inhibition at 0.25 µg/mL [13]: 3.1%; inhibition at 0.12 µg/mL [14]: 2.6%; inhibition at 1 µg/mL [15]: 4.3%; inhibition at 0.06 µg/mL [16]: 0.3%; inhibition at 4 µg/mL [17]: 33.1%; inhibition (INH) [18]: 97.1%; inhibition at 0.06 µg/mL [19]: 98%; Activity [20]: 0%; inhibition (INH) [21]: 26.1%; inhibition at 4 µg/mL [22]: 97.8%; MIC50 [23]: 1 mg/L (≈ 0.69 µM); MIC90 [23]: 1 mg/L (≈ 0.69 µM); Activity [24]: >99.9%; inhibition (INH) [25]: 0.1%; MIC50 [26]: 0.5 mg/L (≈ 0.345 µM); MIC90 [26]: 0.5 mg/L (≈ 0.345 µM); inhibition at 0.25 µg/mL [27]: 77.6%; inhibition at 0.5 µg/mL [28]: 4.3%; inhibition at 0.06 µg/mL [29]: 99.9%; inhibition at 0.06 µg/mL [30]: 56%; inhibition at 4 µg/mL [31]: 14.8%; inhibition at 0.12 µg/mL [32]: 71.6%; inhibition at 0.12 µg/mL [33]: 70.2%; inhibition at 0.12 µg/mL [34]: 1.2%; inhibition at 0.12 µg/mL [35]: > 99.9%; inhibition at 0.06 µg/mL [36]: 0.9%; Activity [37]: >99.9%; Activity [38]: 100%; inhibition at 0.5 µg/mL [39]: 6.6%; Activity [40]: 0%; Activity [41]: 0%; MIC50 [42]: 1 mg/L (≈ 0.69 µM); MIC90 [42]: > 2 mg/L; MIC50 [43]: 1 mg/L (≈ 0.69 µM); MIC90 [43]: 1 mg/L (≈ 0.69 µM); inhibition (INH) [44]: 99.4%; inhibition at 0.25 µg/mL [45]: 70.2%; inhibition (INH) [46]: 9.5%; Activity [47]: >99.9%; inhibition at 0.5 µg/mL [48]: 85.1%
